# Measurements as given in ChEMBL document CHEMBL3638507, “Heteroaromatic compounds as BTK inhibitors” (2015).
# Biological target: Tyrosine-protein kinase BTK (Homo sapiens, UniProt Q06187)
# Test: HTRF Assay: An HTRF assay (Cisbio KinEASE-TK cat #62TKOPEC) was performed to quantitate the ability of test compounds to inhibit BTK mediated phosphorylation of substrate. Assays were assembled in 384 well plates where 6 nM of full-length human His-tagged BTK (Life Technologies cat #PV3587) and test compound at varying concentrations were preincubated for 15 minutes at 28° C. Then, 1 uM of TK substrate-biotin and 30 uM ATP were added and incubated for an additional 30 minutes at 28° C. Phospohrylation was detected by adding 62.5 nM Streptavidin-XL665 and TK-Antibody Cryptate diluted 1:100 in HTRF detection buffer (Cisbio cat #62SDBRDF) and incubated for 60 minutes at RT. The plate was read on an Envision plate reader and the fluoresence is measured at 620 nm (cryptate) and 665 nm (XL665). A ratio is calculated (665/620) and converted to POC relative to control and blank wells.Assay Buffer:50 mM HEPES (Invitrogen #15630), 0.01% Brij-35 (sigma #B4184), 10 mM MgC12 (Sigma M1028), 1 mM EGTA.
# Chain of Tyrosine-protein kinase BTK (Q06187 whole entry): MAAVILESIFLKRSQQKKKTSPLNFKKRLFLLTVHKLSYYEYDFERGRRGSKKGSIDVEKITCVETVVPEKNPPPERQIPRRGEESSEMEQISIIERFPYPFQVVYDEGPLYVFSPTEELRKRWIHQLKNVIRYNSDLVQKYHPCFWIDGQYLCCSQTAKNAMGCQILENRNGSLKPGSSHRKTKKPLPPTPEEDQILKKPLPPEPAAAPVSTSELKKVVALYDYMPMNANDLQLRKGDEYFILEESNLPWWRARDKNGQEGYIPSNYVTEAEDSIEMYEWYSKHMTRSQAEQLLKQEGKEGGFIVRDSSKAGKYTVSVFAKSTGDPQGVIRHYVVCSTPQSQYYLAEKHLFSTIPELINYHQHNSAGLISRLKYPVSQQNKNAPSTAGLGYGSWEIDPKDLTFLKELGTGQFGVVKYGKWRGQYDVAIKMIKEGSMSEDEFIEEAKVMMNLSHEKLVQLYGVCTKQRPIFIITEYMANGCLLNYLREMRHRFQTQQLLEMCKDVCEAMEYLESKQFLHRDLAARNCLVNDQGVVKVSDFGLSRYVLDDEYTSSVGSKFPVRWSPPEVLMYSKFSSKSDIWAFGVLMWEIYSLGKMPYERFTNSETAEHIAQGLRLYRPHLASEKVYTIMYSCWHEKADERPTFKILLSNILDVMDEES
smiles,measurement,value
CC#CC(=O)N1CC[C@]2(C1)C[C@H](n1nc(-c3ccc(Oc4ccccc4)cn3)c3c(N)ncnc31)C2,IC50,4 nM
CC#CC(=O)N1CC2(CC(n3nc(-c4ccc(Oc5ccccc5)cn4)c4c(N)ncnc43)C2)C1,IC50,1 nM
C=CC(=O)N1CC2(CC(n3nc(-c4ccc(Oc5ccccc5)cn4)c4c(N)ncnc43)C2)C1,IC50,1.6 nM
C/C=C/C(=O)N1CC2(CC(n3nc(-c4ccc(Oc5ccccc5)cn4)c4c(N)ncnc43)C2)C1,IC50,65 nM
